Results: US9284321B2, “Piperazino[1,2-a]indol-1-ones and [1,4]diazepino[1,2-a]indol-1-one” (Hoffmann-La Roche Inc., priority 2012, dated 2016)

Columns and labels:
[1] = system: human embryonic stem cell derived neural stem cells (NSCs); experiment: Neural Stem Cell Proliferation Assay (neurogenesis assay, ATP levels by CellTiterGlo); format: cell-based; details: 96 h, compound concentration at which 150% activity of control (100%) is reached, NSC proliferation by ATP level after 4 days incubation, dose response 8 μM to 8 nM
Summary of the method: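 Read-out is CellTiterGlo ATP luminescence after 4-day culture (37 °C, 5% CO2) of dual-SMAD-derived human ESC NSCs, dosed 4 h post-seeding at 8 μM to 8 nM (11 points, 2-fold). EC150 marks the concentration reaching 150% of the media-only control (0.25% DMSO).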

## Cc1c2n(c3c(-c4ccnc(F)c4)cc(C#N)cc13)CCNC2=O [Example 168, 6-(2-Fluoro-pyridin-4-yl)-10-methyl-1-oxo-1,2,3,4-tetrahydro-pyrazino[1,2-a]indole-8-carbonitrile]
[1]
  EC (150% of control): 0.064 µM
other
  melting point: 256 °C

## Cc1c2n(c3c(-c4ccc(F)nc4)cc(C#N)cc13)CCNC2=O [Example 169, 6-(6-Fluoro-pyridin-3-yl)-10-methyl-1-oxo-1,2,3,4-tetrahydro-pyrazino[1,2-a]indole-8-carbonitrile]
[1]
  EC (150% of control): 0.066 µM
other
  melting point: 272 °C

## Cc1c2n(c3c(-c4ccc(OC(F)(F)F)cc4)cc(C#N)cc13)CCNC2=O [Example 170, 10-Methyl-1-oxo-6-(4-trifluoromethoxy-phenyl)-1,2,3,4-tetrahydro-pyrazino[1,2-a]indole-8-carbonitrile]
[1]
  EC (150% of control): 0.014 µM
other
  melting point: 239 °C

## Cc1c2n(c3c(-c4nccs4)cc(F)cc13)CCNC2=O [Example 171, 8-Fluoro-10-methyl-6-thiazol-2-yl-3,4-dihydro-2H-pyrazino[1,2-a]indol-1-one]
[1]
  EC (150% of control): 0.36 µM
other
  melting point: 268 °C

## N#Cc1cc(-c2ccc(Cl)c(F)c2)c2c(c1)cc1n2CCNC1=O [Example 172, 6-(4-Chloro-3-fluoro-phenyl)-1-oxo-1,2,3,4-tetrahydro-pyrazino[1,2-a]indole-8-carbonitrile]
[1]
  EC (150% of control): 0.045 µM
other
  melting point: 309 °C

## N#Cc1cc(-c2ccc(F)cc2F)c2c(c1)cc1n2CCNC1=O [Example 173, 6-(2,4-Difluoro-phenyl)-1-oxo-1,2,3,4-tetrahydro-pyrazino[1,2-a]indole-8-carbonitrile]
[1]
  EC (150% of control): 0.01 µM
other
  melting point: 292 °C

## N#Cc1cc(-c2ccc(Cl)cc2F)c2c(c1)cc1n2CCNC1=O [Example 174, 6-(4-Chloro-2-fluoro-phenyl)-1-oxo-1,2,3,4-tetrahydro-pyrazino[1,2-a]indole-8-carbonitrile]
[1]
  EC (150% of control): 0.019 µM
other
  melting point: 278 °C

## N#Cc1cc(-c2ccc(Cl)cc2Cl)c2c(c1)cc1n2CCNC1=O [Example 175, 6-(2,4-Dichloro-phenyl)-1-oxo-1,2,3,4-tetrahydro-pyrazino[1,2-a]indole-8-carbonitrile]
[1]
  EC (150% of control): 0.034 µM
other
  melting point: 284.5 °C

## N#Cc1ccc(-c2cc(C#N)cc3cc4n(c23)CCNC4=O)cc1 [Example 176, 6-(4-Cyano-phenyl)-1-oxo-1,2,3,4-tetrahydro-pyrazino[1,2-a]indole-8-carbonitrile]
[1]
  EC (150% of control): 0.17 µM
other
  melting point: 363 °C

## N#Cc1cc(-c2ccnc(F)c2)c2c(c1)cc1n2CCNC1=O [Example 177, 6-(2-Fluoro-pyridin-4-yl)-1-oxo-1,2,3,4-tetrahydro-pyrazino[1,2-a]indole-8-carbonitrile]
[1]
  EC (150% of control): 0.68 µM
other
  melting point: 289 °C

## Cc1c2n(c3c(-c4ccc(Cl)c(F)c4)cc(C#N)cc13)CCNC2=O [Example 178, 6-(4-Chloro-3-fluoro-phenyl)-10-methyl-1-oxo-1,2,3,4-tetrahydro-pyrazino[1,2-a]indole-8-carbonitrile]
[1]
  EC (150% of control): 0.048 µM
other
  melting point: 260 °C

## Cc1c2n(c3c(-c4ccc(F)cc4F)cc(C#N)cc13)CCNC2=O [Example 179, 6-(2,4-Difluoro-phenyl)-10-methyl-1-oxo-1,2,3,4-tetrahydro-pyrazino[1,2-a]indole-8-carbonitrile]
[1]
  EC (150% of control): 0.013 µM
other
  melting point: 237 °C

## Cc1c2n(c3c(-c4ccc(Cl)cc4F)cc(C#N)cc13)CCNC2=O [Example 180, 6-(4-Chloro-2-fluoro-phenyl)-10-methyl-1-oxo-1,2,3,4-tetrahydro-pyrazino[1,2-a]indole-8-carbonitrile]
[1]
  EC (150% of control): 0.008 µM
other
  melting point: 270 °C

## O=C1NCCn2c1c(C(F)(F)F)c1cc(F)cc(-c3ccc(F)cc3)c12 [Example 181, 8-Fluoro-6-(4-fluoro-phenyl)-10-trifluoromethyl-3,4-dihydro-2H-pyrazino[1,2-a]indol-1-one]
[1]
  EC (150% of control): 0.62 µM
other
  melting point: 193 °C

## N#Cc1cc(-c2ccc(F)c(F)c2)c2c(c1)c(C(F)(F)F)c1n2CCNC1=O [Example 182, 6-(3,4-Difluoro-phenyl)-1-oxo-10-trifluoromethyl-1,2,3,4-tetrahydro-pyrazino[1,2-a]indole-8-carbonitrile]
[1]
  EC (150% of control): 0.29 µM
other
  melting point: 217 °C

## Cc1c2n(c3c(-c4ccc(Cl)s4)cc(F)cc13)CCNC2=O [Example 183, 6-(5-Chloro-thiophen-2-yl)-8-fluoro-10-methyl-3,4-dihydro-2H-pyrazino[1,2-a]indol-1-one]
[1]
  EC (150% of control): 0.19 µM
other
  melting point: 185 °C

## Cc1c2n(c3c(-c4nnc(C(F)(F)F)s4)cc(F)cc13)CCNC2=O [Example 184, 8-Fluoro-10-methyl-6-[5-(trifluoromethyl)-1,3,4-thiadiazol-2-yl]-3,4-dihydro-2H-pyrazino[1,2-a]indol-1-one]
[1]
  EC (150% of control): 1.11 µM
other
  melting point: 227 °C

## Cc1c2n(c3c(-c4ccc(C#N)s4)cc(F)cc13)CCNC2=O [Example 185, 5-(8-Fluoro-10-methyl-1-oxo-3,4-dihydro-2H-pyrazino[1,2-a]indol-6-yl)thiophene-2-carbonitrile]
[1]
  EC (150% of control): 0.11 µM
other
  melting point: 249 °C

## Cc1c2n(c3c(-c4ncc(C(F)(F)F)s4)cc(F)cc13)CCNC2=O [Example 186, 8-Fluoro-10-methyl-6-[5-(trifluoromethyl)-1,3-thiazol-2-yl]-3,4-dihydro-2H-pyrazino[1,2-a]indol-1-one]
[1]
  EC (150% of control): 0.33 µM
other
  melting point: 263 °C

## O=C1NCCn2c1c(C(F)(F)F)c1cc(Cl)cc(-c3ccc(Cl)cc3)c12 [Example 187, 8-Chloro-6-(4-chlorophenyl)-10-(trifluoromethyl)-3,4-dihydro-2H-pyrazino[1,2-a]indol-1-one]
[1]
  EC (150% of control): 0.088 µM
other
  melting point: 214 °C

## Cc1c2n(c3c(-c4ccco4)cc(F)cc13)CCNC2=O [Example 188, 8-Fluoro-6-(furan-2-yl)-10-methyl-3,4-dihydro-2H-pyrazino[1,2-a]indol-1-one]
[1]
  EC (150% of control): 0.1 µM
other
  melting point: 236 °C

## N#Cc1cc(-c2cc(F)c(F)c(F)c2)c2c(c1)cc1n2CCNC1=O [Example 189, 1-Oxo-6-(3,4,5-trifluorophenyl)-3,4-dihydro-2H-pyrazino[1,2-a]indole-8-carbonitrile]
[1]
  EC (150% of control): 0.22 µM
other
  melting point: 304.5 °C

## N#Cc1cc(-c2ccc(OC(F)(F)F)cc2)c2c(c1)cc1n2CCNC1=O [Example 190, 1-Oxo-6-[4-(trifluoromethoxy)phenyl]-3,4-dihydro-2H-pyrazino[1,2-a]indole-8-carbonitrile]
[1]
  EC (150% of control): 0.037 µM
other
  melting point: 311.5 °C

## CS(=O)(=O)c1ccc(-c2cc(C#N)cc3cc4n(c23)CCNC4=O)cc1 [Example 191, 6-(4-Methylsulfonylphenyl)-1-oxo-3,4-dihydro-2H-pyrazino[1,2-a]indole-8-carbonitrile]
[1]
  EC (150% of control): 0.24 µM
other
  melting point: 329 °C

## N#Cc1cc(-c2ccc(Cl)c(Cl)c2)c2c(c1)cc1n2CCNC1=O [Example 192, 6-(3,4-Dichlorophenyl)-1-oxo-3,4-dihydro-2H-pyrazino[1,2-a]indole-8-carbonitrile]
[1]
  EC (150% of control): 0.13 µM
other
  melting point: 330.5 °C

## N#Cc1cc(-c2cccc(Cl)c2)c2c(c1)cc1n2CCNC1=O [Example 193, 6-(3-Chlorophenyl)-1-oxo-3,4-dihydro-2H-pyrazino[1,2-a]indole-8-carbonitrile]
[1]
  EC (150% of control): 0.32 µM
other
  melting point: 241.5 °C

## N#Cc1cccc(-c2cc(C#N)cc3cc4n(c23)CCNC4=O)c1 [Example 194, 6-(3-Cyanophenyl)-1-oxo-3,4-dihydro-2H-pyrazino[1,2-a]indole-8-carbonitrile]
[1]
  EC (150% of control): 1.08 µM
other
  melting point: 253 °C

## N#Cc1cc(-c2cccc(C(F)(F)F)c2)c2c(c1)cc1n2CCNC1=O [Example 195, 1-Oxo-6-[3-(trifluoromethyl)phenyl]-3,4-dihydro-2H-pyrazino[1,2-a]indole-8-carbonitrile]
[1]
  EC (150% of control): 1.4 µM
other
  melting point: 279.5 °C

## Cc1c2n(c3c(-c4ccc(F)c(F)c4)cc(C#N)cc13)CCCNC2=O [Example 196, 7-(3,4-Difluorophenyl)-11-methyl-1-oxo-2,3,4,5-tetrahydro-[1,4]diazepino[1,2-a]indole-9-carbonitrile]
[1]
  EC (150% of control): 0.086 µM
other
  melting point: 278 °C

## Cc1c2n(c3c(-c4ccc(C(F)(F)F)cc4)cc(C#N)cc13)CCCNC2=O [Example 197, 11-Methyl-1-oxo-7-[4-(trifluoromethyl)phenyl]-2,3,4,5-tetrahydro-[1,4]diazepino[1,2-a]indole-9-carbonitrile]
[1]
  EC (150% of control): 0.14 µM
other
  melting point: 252 °C

## Cc1c2n(c3c(-c4ccc(F)cc4)cc(C#N)cc13)CCCNC2=O [Example 198, 7-(4-Fluorophenyl)-11-methyl-1-oxo-2,3,4,5-tetrahydro-[1,4]diazepino[1,2-a]indole-9-carbonitrile]
[1]
  EC (150% of control): 0.033 µM
other
  melting point: 278 °C

## Cc1c2n(c3c(-c4ccc(Cl)cc4)cc(C#N)cc13)CCCNC2=O [Example 199, 7-(4-Chlorophenyl)-11-methyl-1-oxo-2,3,4,5-tetrahydro-[1,4]diazepino[1,2-a]indole-9-carbonitrile]
[1]
  EC (150% of control): 0.053 µM
other
  melting point: 298 °C

## Cc1c2n(c3c(-c4ccc(C#N)cc4)cc(C#N)cc13)CCCNC2=O [Example 200, 7-(4-Cyanophenyl)-11-methyl-1-oxo-2,3,4,5-tetrahydro-[1,4]diazepino[1,2-a]indole-9-carbonitrile]
[1]
  EC (150% of control): 0.041 µM
other
  melting point: 314 °C
